Converted amounts (≈) assume the structure as drawn. The source made the active and inactive calls. The calls are words filed in the database; no cut-off is given here.
Assays:
Phytophthora capsici [1] = assay: Inhibition of intact mycelial respiration of Phytophthora capsici at 100 ug/mL in presence of sodium phosphate; format: functional
Phytophthora capsici [2] = assay: Inhibition of intact mycelial respiration of Phytophthora capsici at 100 ug/mL; format: functional
Phytophthora capsici [3] = assay: Inhibition of intact mycelial respiration of Phytophthora capsici at 100 ug/mL in presence of malonic acid; format: functional
Phytophthora capsici [4] = assay: Inhibition of intact mycelial respiration of Phytophthora capsici assessed as superpose rate of oxygen consumption at 100 ug/mL in presence of iodoacetic acid; format: functional; parameters: scale not given: the % may be the effect or the level left
Phytophthora capsici [5] = assay: Inhibition of intact mycelial respiration of Phytophthora capsici at 100 ug/mL in presence of iodoacetic acid; format: functional
Phytophthora capsici [6] = assay: Inhibition of intact mycelial respiration of Phytophthora capsici assessed as superpose rate of oxygen consumption at 100 ug/mL in presence of malonic acid; format: functional; parameters: scale not given: the % may be the effect or the level left
Phytophthora capsici [7] = assay: Inhibition of intact mycelial respiration of Phytophthora capsici assessed as superpose rate of oxygen consumption at 100 ug/mL in presence of sodium phosphate; format: functional; parameters: scale not given: the % may be the effect or the level left
Phytophthora capsici [8] = assay: Inhibition of intact mycelial respiration of Phytophthora capsici at 10 ug/mL in presence of sodium phosphate; format: functional
Phytophthora capsici [9] = assay: Inhibition of intact mycelial respiration of Phytophthora capsici assessed as superpose rate of oxygen consumption at 10 ug/mL in presence of malonic acid; format: functional; parameters: scale not given: the % may be the effect or the level left
Phytophthora capsici [10] = assay: Inhibition of intact mycelial respiration of Phytophthora capsici assessed as superpose rate of oxygen consumption at 10 ug/mL in presence of sodium phosphate; format: functional; parameters: scale not given: the % may be the effect or the level left
Phytophthora capsici [11] = assay: Inhibition of intact mycelial respiration of Phytophthora capsici at 10 ug/mL in presence of iodoacetic acid; format: functional
Phytophthora capsici [12] = assay: Inhibition of intact mycelial respiration of Phytophthora capsici at 10 ug/mL in presence of malonic acid; format: functional
Phytophthora capsici [13] = assay: Inhibition of intact mycelial respiration of Phytophthora capsici at 10 ug/mL; format: functional
Phytophthora capsici [14] = assay: Inhibition of intact mycelial respiration of Phytophthora capsici assessed as superpose rate of oxygen consumption at 10 ug/mL in presence of iodoacetic acid; format: functional; parameters: scale not given: the % may be the effect or the level left
Phytophthora capsici [15] = assay: Inhibition of cytospore germination of Phytophthora capsici at 0.2 ug/mL after 24 hr; format: functional
Phytophthora capsici [16] = assay: Inhibition of mycelial radial growth of Phytophthora capsici at 5 ug/mL incubated at 25 degC for 5 days in presence of 1 ug/mL ATP; format: functional
Phytophthora capsici [17] = assay: Induction of morphological changes in Phytophthora capsici assessed as abnormal mycelial growth at 10 ug/mL by scanning electron microscopy; format: functional, organism-based
Phytophthora capsici [18] = assay: Inhibition of mycelial radial growth of Phytophthora capsici at 5 ug/mL incubated at 25 degC for 5 days; format: functional; conditions: 120 h
Phytophthora capsici [19] = assay: Induction of morphological changes in Phytophthora capsici assessed as reduction in number of vesicles at 5 ug/mL by transmission electron microscopy; format: functional, organism-based
Phytophthora capsici [20] = assay: Inhibition of sporangia formation of Phytophthora capsici at 0.1 ug/mL treated 240 min after sporangia incubation followed by compound exposure for 60 min by light microscopy; format: functional
Phytophthora capsici [21] = assay: Inhibition of mycelial radial growth of Phytophthora capsici at 2 ug/mL incubated at 25 degC for 5 days; format: functional; conditions: 120 h
Phytophthora capsici [22] = assay: Inhibition of sporangia formation of Phytophthora capsici at 0.5 ug/mL treated 240 min after sporangia incubation followed by compound exposure for 60 min by light microscopy; format: functional
Phytophthora capsici [23] = assay: Inhibition of zoospore release of Phytophthora capsici at 6 ug/mL; format: functional
Phytophthora capsici [24] = assay: Induction of morphological changes in Phytophthora capsici assessed as increase in extensive cell wall proliferation at 5 ug/mL by transmission electron microscopy; format: functional, organism-based
Phytophthora capsici [25] = assay: Inhibition of cytospore germination of Phytophthora capsici at 2 ug/mL after 24 hr; format: functional
Phytophthora capsici [26] = assay: Induction of morphological changes in Phytophthora capsici assessed as induction of multilayered cell wall development at 10 ug/mL by transmission electron microscopy; format: functional, organism-based
Phytophthora capsici [27] = assay: Inhibition of cytospore germination of Phytophthora capsici after 24 hr; format: functional, organism-based
Phytophthora capsici [28] = assay: Inhibition of cytospore germination of Phytophthora capsici at 1 ug/mL after 24 hr; format: functional
Phytophthora capsici [29] = assay: Inhibition of zoospore release of Phytophthora capsici at 50 ug/mL; format: functional
Phytophthora capsici [30] = assay: Induction of morphological changes in Phytophthora capsici assessed as distortion of vacuoles and vesicles in dense bodies at 10 ug/mL by transmission electron microscopy; format: functional, organism-based
Phytophthora capsici [31] = assay: Inhibition of zoospore release of Phytophthora capsici; format: functional, organism-based
Phytophthora capsici [32] = assay: Induction of morphological changes in Phytophthora capsici assessed as increase in dense bodies at 10 ug/mL by transmission electron microscopy; format: functional, organism-based
Phytophthora capsici [33] = assay: Inhibition of mycelial radial growth of Phytophthora capsici at 1 ug/mL incubated at 25 degC for 5 days; format: functional; conditions: 120 h
Phytophthora capsici [34] = assay: Inhibition of mycelial radial growth of Phytophthora capsici at 10 ug/mL incubated at 25 degC for 5 days in presence of 5 ug/mL ATP; format: functional
Phytophthora capsici [35] = assay: Induction of morphological changes in Phytophthora capsici assessed as increase in mycelial ramifications at 10 ug/mL by scanning electron microscopy; format: functional, organism-based
Phytophthora capsici [36] = assay: Inhibition of cytospore germination of Phytophthora capsici at 0.5 ug/mL after 24 hr; format: functional
Phytophthora capsici [37] = assay: Inhibition of cytospore germination of Phytophthora capsici at 0.1 ug/mL after 24 hr; format: functional
Phytophthora capsici [38] = assay: Inhibition of mycelial radial growth of Phytophthora capsici at 10 ug/mL incubated at 25 degC for 5 days in presence of 1 ug/mL ATP; format: functional
Phytophthora capsici [39] = assay: Inhibition of zoospore release of Phytophthora capsici at 100 ug/mL; format: functional
Phytophthora capsici [40] = assay: Induction of morphological changes in Phytophthora capsici assessed as abnormal mycelial growth at 5 ug/mL by scanning electron microscopy; format: functional, organism-based
Phytophthora capsici [41] = assay: Induction of morphological changes in Phytophthora capsici assessed as increase in abnormal mycelial configurations at 10 ug/mL by scanning electron microscopy; format: functional, organism-based
Phytophthora capsici [42] = assay: Inhibition of mycelial radial growth of Phytophthora capsici at 10 ug/mL incubated at 25 degC for 5 days in absence of 5 ug/mL ATP; format: functional
Phytophthora capsici [43] = assay: Induction of morphological changes in Phytophthora capsici assessed as increase in mycelial colony density at 10 ug/mL by scanning electron microscopy; format: functional, organism-based
Phytophthora capsici [44] = assay: Induction of morphological changes in Phytophthora capsici assessed as induction of distortion of cell wall at 10 ug/mL by transmission electron microscopy; format: functional, organism-based
Phytophthora capsici [45] = assay: Inhibition of mycelial radial growth of Phytophthora capsici incubated at 25 degC for 5 days; format: functional, organism-based; conditions: 120 h
Phytophthora capsici [46] = assay: Inhibition of sporangia formation of Phytophthora capsici at 2 ug/mL treated 240 min after sporangia incubation followed by compound exposure for 60 min by light microscopy; format: functional
Phytophthora capsici [47] = assay: Inhibition of zoospore release of Phytophthora capsici at 12 ug/mL; format: functional
Phytophthora capsici [48] = assay: Inhibition of mycelial radial growth of Phytophthora capsici at 0.6 ug/mL incubated at 25 degC for 5 days; format: functional; conditions: 120 h
Phytophthora capsici [49] = assay: Induction of morphological changes in Phytophthora capsici assessed as increase in mycelial colony density at 5 ug/mL by scanning electron microscopy; format: functional, organism-based
Phytophthora capsici [50] = assay: Inhibition of sporangia formation of Phytophthora capsici at 1 ug/mL treated 240 min after sporangia incubation followed by compound exposure for 60 min by light microscopy; format: functional
Phytophthora capsici [51] = assay: Inhibition of sporangia formation of Phytophthora capsici treated 240 min after sporangia incubation followed by compound exposure for 60 min by light microscopy; format: functional, organism-based
Phytophthora capsici [52] = assay: Inhibition of sporangia formation of Phytophthora capsici at 0.2 ug/mL treated 240 min after sporangia incubation followed by compound exposure for 60 min by light microscopy; format: functional
Phytophthora capsici [53] = assay: Inhibition of zoospore release of Phytophthora capsici at 25 ug/mL; format: functional
Phytophthora capsici [54] = assay: Inhibition of mycelial radial growth of Phytophthora capsici at 5 ug/mL incubated at 25 degC for 5 days in presence of 5 ug/mL ATP; format: functional; conditions: 120 h

Compound: COc1ccc(C(=CC(=O)N2CCOCC2)c2ccc(Cl)cc2)cc1OC [DIMETHOMORPH]
- inhibition at 100 µg/mL (Phytophthora capsici [1]): 55%
- inhibition at 100 µg/mL (Phytophthora capsici [2]): 19.4%
- inhibition at 100 µg/mL (Phytophthora capsici [3]): 59.6%
- Activity (Phytophthora capsici [4]): 51.62%
- inhibition at 100 µg/mL (Phytophthora capsici [5]): 61.1%
- Activity (Phytophthora capsici [6]): 49.91%
- Activity (Phytophthora capsici [7]): 44.06%

Compound: CO/C=C(/C(=O)OC)c1ccccc1Oc1cc(Oc2ccccc2C#N)ncn1 [AZOXYSTROBIN]
- inhibition at 10 µg/mL (Phytophthora capsici [8]): 86.2%
- Activity (Phytophthora capsici [9]): 9.02%
- Activity (Phytophthora capsici [10]): 51.36%
- inhibition at 10 µg/mL (Phytophthora capsici [11]): 86.8%
- inhibition at 10 µg/mL (Phytophthora capsici [12]): 74.2%
- inhibition at 10 µg/mL (Phytophthora capsici [13]): 71.7%
- Activity (Phytophthora capsici [14]): 53.27%

Compound: CC(C)(C)c1ccc(/C(=C/C(=O)N2CCOCC2)c2ccnc(Cl)c2)cc1 [PYRIMORPH]
- inhibition at 0.2 µg/mL (Phytophthora capsici [15]): 56%
- inhibition (INH) (Phytophthora capsici [16]): 75%
- Activity (Phytophthora capsici [17]): Active
- inhibition at 5 µg/mL (Phytophthora capsici [18]): 81%
- Activity (Phytophthora capsici [19]): Active
- inhibition at 0.1 µg/mL (Phytophthora capsici [20]): 52%
- inhibition at 2 µg/mL (Phytophthora capsici [21]): 57%
- inhibition at 0.5 µg/mL (Phytophthora capsici [22]): 66%
- inhibition at 6 µg/mL (Phytophthora capsici [23]): 58%
- Activity (Phytophthora capsici [24]): Active
- inhibition at 2 µg/mL (Phytophthora capsici [25]): 84%
- inhibition at 100 µg/mL (Phytophthora capsici [1]): 44%
- inhibition at 100 µg/mL (Phytophthora capsici [2]): 41%
- Activity (Phytophthora capsici [26]): Active
- EC50 (Phytophthora capsici [27]): 0.09 µg/mL (≈ 0.234 µM)
- EC90 (Phytophthora capsici [27]): 8.16 µg/mL (≈ 21.2 µM)
- inhibition at 1 µg/mL (Phytophthora capsici [28]): 71%
- inhibition at 50 µg/mL (Phytophthora capsici [29]): 94%
- Activity (Phytophthora capsici [30]): Active
- EC50 (Phytophthora capsici [31]): 4.92 µg/mL (≈ 12.8 µM)
- EC90 (Phytophthora capsici [31]): 45.7 µg/mL (≈ 119 µM)
- Activity (Phytophthora capsici [32]): Active
- inhibition at 1 µg/mL (Phytophthora capsici [33]): 28%
- inhibition (INH) (Phytophthora capsici [34]): 77%
- Activity (Phytophthora capsici [35]): Active
- inhibition at 0.5 µg/mL (Phytophthora capsici [36]): 68%
- inhibition at 0.1 µg/mL (Phytophthora capsici [37]): 54%
- inhibition (INH) (Phytophthora capsici [38]): 78.1%
- inhibition at 100 µg/mL (Phytophthora capsici [39]): 95%
- Activity (Phytophthora capsici [40]): Active
- Activity (Phytophthora capsici [41]): Active
- inhibition at 100 µg/mL (Phytophthora capsici [3]): 51.8%
- inhibition (INH) (Phytophthora capsici [42]): 98%
- Activity (Phytophthora capsici [43]): Active
- Activity (Phytophthora capsici [4]): 32.61%
- Activity (Phytophthora capsici [44]): Active
- EC50 (Phytophthora capsici [45]): 1.84 µg/mL (≈ 4.78 µM)
- EC90 (Phytophthora capsici [45]): 5.71 µg/mL (≈ 14.8 µM)
- inhibition at 2 µg/mL (Phytophthora capsici [46]): 85%
- inhibition at 12 µg/mL (Phytophthora capsici [47]): 65%
- inhibition at 0.6 µg/mL (Phytophthora capsici [48]): 9%
- Activity (Phytophthora capsici [49]): Active
- inhibition at 1 µg/mL (Phytophthora capsici [50]): 75%
- EC50 (Phytophthora capsici [51]): 0.17 µg/mL (≈ 0.442 µM)
- EC90 (Phytophthora capsici [51]): 3.21 µg/mL (≈ 8.34 µM)
- inhibition at 100 µg/mL (Phytophthora capsici [5]): 60.2%
- inhibition at 0.2 µg/mL (Phytophthora capsici [52]): 57%
- inhibition at 25 µg/mL (Phytophthora capsici [53]): 80%
- inhibition at 5 µg/mL (Phytophthora capsici [54]): 72%
- Activity (Phytophthora capsici [6]): 18.31%
- Activity (Phytophthora capsici [7]): 5.22%

From ChEMBL document CHEMBL3044598, “Study of inhibitory effects and action mechanism of the novel fungicide pyrimorph against Phytophthora capsici” (J Agric Food Chem, 2010)
